Values quoted from earlier work as cited in patent US12458653B2, “Cannabis based therapeutic and method of use” (priority 2018, dated 2025).
Like-named read-outs stand apart in the source and are kept apart here.

Tests used:
[1] = test system: chemotherapy-induced nausea and vomiting; settings: versus available anti-emetic regimens
[2] = extensive liver metabolism

Q: For `CCCCCc1cc(O)c2c(c1)OC(C)(C)[C@@H]1CCC(CO)=C[C@@H]21` [11-OH-THC], which “peak concentration in the urine” value (after 3 hours, smoking approximately 27 mg of Δ9-THC) is on record?
A: Its value is 77.0 ± 329.7 ng/mL.

Q: And the “peak concentration in the urine” value (within two hours after smoking approximately 27 mg of Δ9-THC in a cigarette)?
A: The value was 3.2 to 53.3 ng/mL.

Q: For `CCCCCc1cc(O)c2c(c1)OC(C)(C)[C@@H]1CCC(C)=C[C@@H]21` [Dronabinol], which “relief of chemotherapy-induced nausea and vomiting” value [1] is on record?
A: Its value is “little relief over available anti-emetic regimens”.

Q: For `CCCCCc1cc(O)c2c(c1)OC(C)(C)[C@@H]1CCC(C(=O)O)=C[C@@H]21` [THC—COOH], which “peak concentration in the urine” value (after 4 hours, smoking approximately 27 mg of Δ9-THC) is on record?
A: The value was 179.4 ng/mL.

Q: What about the urinary excretion half-life (after seven days of monitoring) of the same compound?
A: The urinary excretion half-life was “approximately 30 hours”.

Q: What about the “time THC-COOH is detectable in plasma” value (after smoking a cigarette containing 16-34 mg of Δ9-THC) of the same compound?
A: Its value is 2 to 7 days.

Q: What about the urinary excretion half-life (after twelve days of monitoring) of the same compound?
A: Its urinary excretion half-life is 44 to 60 h.

Q: What about the “initial concentration of THC-COOH in serum” value (clinical study among 52 volunteers) of the same compound?
A: The value was 14 to 49 ng/mL.

Q: And the THC-COOH detection time (single chronic user)?
A: The THC-COOH detection time was 25 days.

Q: Which results are given for `CCCCCc1cc(O)c2c(c1)OC(C)(C)[C@@H]1CCC(C)=C[C@@H]21` [Δ9-THC, delta-9 tetrahydrocannabinol]?
A: oral bioavailability of Δ9-THC [2]: 4-12%; half-life (frequent users): 120 to 312 h; half-life (infrequent user): 31.2 h; average plasma clearance rate (men): 14.9 ± 3.7 L/h; plasma clearance rate (naïve cannabis users): approximately 36 L/hour; plasma clearance rate (regular cannabis users): 60 L/h; average plasma clearance rate (women): 11.8 ± 3 L/h
